According to PubChem BioAssay AID1963829 (Molecular Pharmacology Branch, DTP, NCI, 2024):

Test system: 935938-334-R-J1-PDC complex spheroid viability
Assay: Anticancer human tumor 935938-334-R-J1-PDC patient-derived small intestine adenocarcinoma cell line growth inhibition [POLQ]
Settings: for IC50: curve of first compound; for viability, T/C: stronger effect = lower value
Outline: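 Patient-derived tumour cells were co-cultured with HUVEC and mesenchymal stem cells as multicellular spheroids at 37 °C. They were treated with POLQ inhibitors (novobiocin, ART-558, RP6685) alone or combined with other agents. Top concentrations were at or near clinical Cmax (otherwise 10 microM; SN-38 at 1 microM), decreasing in half-log steps.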

[1] = second compound 0.0316 µM, first compound 0.0316 µM
[2] = second compound 0.0316 µM, first compound 0.1 µM
[3] = second compound 0.0316 µM, first compound 0.316 µM
[4] = second compound 0.0316 µM, first compound 1 µM
[5] = second compound 0.0316 µM, first compound 3.16 µM
[6] = second compound 0.0316 µM, first compound 10 µM
[7] = second compound 0.1 µM, first compound 0.0316 µM
[8] = second compound 0.1 µM, first compound 0.1 µM
[9] = second compound 0.1 µM, first compound 0.316 µM
[10] = second compound 0.1 µM, first compound 1 µM
[11] = second compound 0.1 µM, first compound 3.16 µM
[12] = second compound 0.1 µM, first compound 10 µM
[13] = second compound 0.316 µM, first compound 0.0316 µM
[14] = second compound 0.316 µM, first compound 0.1 µM
[15] = second compound 0.316 µM, first compound 0.316 µM
[16] = second compound 0.316 µM, first compound 1 µM
[17] = second compound 0.316 µM, first compound 3.16 µM
[18] = second compound 0.316 µM, first compound 10 µM
[19] = second compound 1 µM, first compound 0.0316 µM
[20] = second compound 1 µM, first compound 0.1 µM
[21] = second compound 1 µM, first compound 0.316 µM
[22] = second compound 1 µM, first compound 1 µM
[23] = second compound 1 µM, first compound 3.16 µM
[24] = second compound 1 µM, first compound 10 µM
[25] = second compound 3.16 µM, first compound 0.0316 µM
[26] = second compound 3.16 µM, first compound 0.1 µM
[27] = second compound 3.16 µM, first compound 0.316 µM
[28] = second compound 3.16 µM, first compound 1 µM
[29] = second compound 3.16 µM, first compound 3.16 µM
[30] = second compound 3.16 µM, first compound 10 µM
[31] = second compound 10 µM, first compound 0.0316 µM
[32] = second compound 10 µM, first compound 0.1 µM
[33] = second compound 10 µM, first compound 0.316 µM
[34] = second compound 10 µM, first compound 1 µM
[35] = second compound 10 µM, first compound 3.16 µM
[36] = second compound 10 µM, first compound 10 µM
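Further: spheroids exposed to drugs for seven days before viability read.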
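Wherever viability, T/C is given: 100% = DMSO vehicle control wells.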

Q: With `CCc1cc2c(N3CCc4c(cc(Cn5ccnc5)cc4-c4cn(C)nc4C(F)(F)F)C3=O)ccnc2c(OC)n1` + Cc1cccc(N(C)C(=O)C2C(O)CCN2c2nc(C)cc(C(F)(F)F)c2C#N)c1 as the compound, how does the IC50 (second compound 0.0316 µM) read?
A: > 10 µM

Q: What about the IC50 (second compound 0.1 µM) of the same compound?
A: > 10 µM

Q: And the IC50 (second compound 0.316 µM)?
A: > 10 µM

Q: And the IC50 (second compound 1 µM)?
A: > 10 µM

Q: What about the IC50 (second compound 3.16 µM) of the same compound?
A: > 10 µM

Q: What about the IC50 (second compound 10 µM) of the same compound?
A: > 10 µM

Q: And the viability, T/C [1]?
A: 69.1%

Q: What about the viability, T/C [2] of the same compound?
A: 66.5%

Q: And the viability, T/C [3]?
A: 68.8%

Q: What about the viability, T/C [4] of the same compound?
A: 58.4%

Q: What about the viability, T/C [5] of the same compound?
A: 69.4%

Q: And the viability, T/C [6]?
A: 55.3%

Q: What about the viability, T/C [7] of the same compound?
A: 74.5%

Q: What about the viability, T/C [8] of the same compound?
A: 75%

Q: And the viability, T/C [9]?
A: 63.2%

Q: And the viability, T/C [10]?
A: 54.5%

Q: What about the viability, T/C [11] of the same compound?
A: 60.6%

Q: What about the viability, T/C [12] of the same compound?
A: 55.8%

Q: And the viability, T/C [13]?
A: 61.5%

Q: What about the viability, T/C [14] of the same compound?
A: 87.3%

Q: And the viability, T/C [15]?
A: 64.2%

Q: And the viability, T/C [16]?
A: 59.7%

Q: And the viability, T/C [17]?
A: 69.5%

Q: And the viability, T/C [18]?
A: 64.1%

Q: And the viability, T/C [19]?
A: 98.3%

Q: What about the viability, T/C [20] of the same compound?
A: 54.9%

Q: What about the viability, T/C [21] of the same compound?
A: 58.3%

Q: What about the viability, T/C [22] of the same compound?
A: 67.8%

Q: What about the viability, T/C [23] of the same compound?
A: 65.8%

Q: What about the viability, T/C [24] of the same compound?
A: 57.6%

Q: And the viability, T/C [25]?
A: 78.3%

Q: And the viability, T/C [26]?
A: 68.3%

Q: What about the viability, T/C [27] of the same compound?
A: 67.9%

Q: And the viability, T/C [28]?
A: 79%

Q: And the viability, T/C [29]?
A: 71.8%

Q: And the viability, T/C [30]?
A: 57.8%

Q: And the viability, T/C [31]?
A: 95.5%

Q: What about the viability, T/C [32] of the same compound?
A: 62.8%

Q: And the viability, T/C [33]?
A: 81.6%

Q: And the viability, T/C [34]?
A: 65.8%

Q: And the viability, T/C [35]?
A: 61.2%

Q: What about the viability, T/C [36] of the same compound?
A: 51.9%

Q: How did the IC50 (second compound 0.0316 µM) turn out when `C#Cc1c(F)ccc2cc(O)cc(-c3ncc4c(N5CC6CCC(C5)N6)nc(OCC56CCCN5CC(F)C6)nc4c3F)c12` (stereo unspecified) + Nc1ccc(C#CCN(C(=O)Cc2ncc(C(F)(F)F)cc2C(F)(F)F)c2ccc(F)cc2)nn1 was run?
A: 5.75 µM

Q: And the IC50 (second compound 0.1 µM)?
A: > 10 µM

Q: What about the IC50 (second compound 0.316 µM) of the same compound?
A: 2.92 µM

Q: And the IC50 (second compound 1 µM)?
A: 2.85 µM

Q: What about the IC50 (second compound 3.16 µM) of the same compound?
A: > 10 µM

Q: And the IC50 (second compound 10 µM)?
A: 2.94 µM

Q: And the viability, T/C [1]?
A: 97.5%

Q: And the viability, T/C [2]?
A: 104%

Q: And the viability, T/C [3]?
A: 84.6%

Q: What about the viability, T/C [4] of the same compound?
A: 74.1%

Q: What about the viability, T/C [5] of the same compound?
A: 65%

Q: What about the viability, T/C [6] of the same compound?
A: 38.4%

Q: What about the viability, T/C [7] of the same compound?
A: 97.9%

Q: And the viability, T/C [8]?
A: 84.8%

Q: What about the viability, T/C [9] of the same compound?
A: 90.4%

Q: What about the viability, T/C [10] of the same compound?
A: 97.4%

Q: What about the viability, T/C [11] of the same compound?
A: 52.1%

Q: And the viability, T/C [12]?
A: 53.6%

Q: And the viability, T/C [13]?
A: 83.7%

Q: And the viability, T/C [14]?
A: 114%

Q: What about the viability, T/C [15] of the same compound?
A: 92%

Q: What about the viability, T/C [16] of the same compound?
A: 68.2%

Q: What about the viability, T/C [17] of the same compound?
A: 52%

Q: And the viability, T/C [18]?
A: 42.1%

Q: What about the viability, T/C [19] of the same compound?
A: 81.4%

Q: And the viability, T/C [20]?
A: 111%

Q: And the viability, T/C [21]?
A: 92.1%

Q: What about the viability, T/C [22] of the same compound?
A: 73.4%

Q: What about the viability, T/C [23] of the same compound?
A: 48.6%

Q: What about the viability, T/C [24] of the same compound?
A: 41.8%

Q: And the viability, T/C [25]?
A: 105%

Q: And the viability, T/C [26]?
A: 99.6%

Q: What about the viability, T/C [27] of the same compound?
A: 66.9%

Q: And the viability, T/C [28]?
A: 66.4%

Q: What about the viability, T/C [29] of the same compound?
A: 61.1%

Q: What about the viability, T/C [30] of the same compound?
A: 67.2%

Q: And the viability, T/C [31]?
A: 108%

Q: What about the viability, T/C [32] of the same compound?
A: 96.7%

Q: And the viability, T/C [33]?
A: 76.2%

Q: And the viability, T/C [34]?
A: 63.6%

Q: What about the viability, T/C [35] of the same compound?
A: 43%

Q: And the viability, T/C [36]?
A: 48.9%

Q: With `Nc1ccn(C2OC(CO)C(O)C2(F)F)c(=O)n1` (stereo unspecified) + Nc1ccc(C#CCN(C(=O)Cc2ncc(C(F)(F)F)cc2C(F)(F)F)c2ccc(F)cc2)nn1 as the compound, how does the IC50 (second compound 0.0316 µM) read?
A: < 0.0316 µM

Q: And the IC50 (second compound 0.1 µM)?
A: < 0.0316 µM

Q: What about the IC50 (second compound 0.316 µM) of the same compound?
A: < 0.0316 µM

Q: What about the IC50 (second compound 1 µM) of the same compound?
A: < 0.0316 µM

Q: What about the IC50 (second compound 3.16 µM) of the same compound?
A: < 0.0316 µM

Q: And the IC50 (second compound 10 µM)?
A: < 0.0316 µM

Q: And the viability, T/C [1]?
A: 35.4%

Q: What about the viability, T/C [2] of the same compound?
A: 27.6%

Q: What about the viability, T/C [3] of the same compound?
A: 17.3%

Q: And the viability, T/C [4]?
A: 17.3%

Q: What about the viability, T/C [5] of the same compound?
A: 18.2%

Q: What about the viability, T/C [6] of the same compound?
A: 16.8%

Q: And the viability, T/C [7]?
A: 33.2%

Q: And the viability, T/C [8]?
A: 24.4%

Q: What about the viability, T/C [9] of the same compound?
A: 16.5%

Q: And the viability, T/C [10]?
A: 17.5%

Q: What about the viability, T/C [11] of the same compound?
A: 19.1%

Q: What about the viability, T/C [12] of the same compound?
A: 13.9%

Q: What about the viability, T/C [13] of the same compound?
A: 31.1%

Q: And the viability, T/C [14]?
A: 24.8%

Q: What about the viability, T/C [15] of the same compound?
A: 23.2%

Q: And the viability, T/C [16]?
A: 19.6%

Q: And the viability, T/C [17]?
A: 17.1%

Q: And the viability, T/C [18]?
A: 14.4%

Q: What about the viability, T/C [19] of the same compound?
A: 33.2%

Q: And the viability, T/C [20]?
A: 23.4%

Q: What about the viability, T/C [21] of the same compound?
A: 18.2%

Q: What about the viability, T/C [22] of the same compound?
A: 19.1%

Q: What about the viability, T/C [23] of the same compound?
A: 16.6%

Q: What about the viability, T/C [24] of the same compound?
A: 15.3%

Q: What about the viability, T/C [25] of the same compound?
A: 30.2%

Q: What about the viability, T/C [26] of the same compound?
A: 25.6%

Q: What about the viability, T/C [27] of the same compound?
A: 20.2%

Q: And the viability, T/C [28]?
A: 21.2%

Q: What about the viability, T/C [29] of the same compound?
A: 17.5%

Q: And the viability, T/C [30]?
A: 17.1%

Q: What about the viability, T/C [31] of the same compound?
A: 42.9%

Q: What about the viability, T/C [32] of the same compound?
A: 31.6%

Q: And the viability, T/C [33]?
A: 30.1%

Q: And the viability, T/C [34]?
A: 20.6%

Q: And the viability, T/C [35]?
A: 19.8%

Q: What about the viability, T/C [36] of the same compound?
A: 19.2%
